Data published in US8680059B2, “Oligopeptide acetate and formulations thereof” (Biotempt B.V., priority 1998, dated 2014).
Where “and” joins values, the source holds several entries; their conditions need not be identical. Equal entries are not always repeated. Peptide text beside a SMILES is read from it.

What was measured:
healthy male subjects = experiment: Phase I human trial: safety; type: in vivo
From the text: (§1) Part 1: A Phase I, double blind, randomized, single dose, placebo controlled, dose escalation study with 4 groups of 8 subjects (Groups 1-4). In each group 6 subjects were randomized to active medication and 2 to placebo. The first group received a single intravenous injection of EA-230 or placebo. After all subjects had completed Day 7 assessments, the safety review board decided on continuation of the study until the maximum tolerated dose had been assessed or the highest dose. Placebo subjects were pooled for analysis.
(§2) Part 2: A Phase I, double blind, randomized, single dose, placebo controlled study. The second part consisted of 1 group of 12 subjects (Group 5). All twelve subjects received LPS (4 ng/kg E. coli EC6) as a 2-minute injection, 30 minutes prior to EA-230 administration. […] Cytokines profiles were assessed to establish the effect of EA-230 on inflammatory parameters.
Adverse events (AEs), vital signs, ECG, hematology, clinical chemistry, and urinalysis.
Incidence of treatment emergent AEs and treatment emergent treatment related AEs were summarized. Hematological, biochemical, urinalysis parameters, vital signs and their changes from baseline were summarized over time using n, mean, standard deviation, median and range.

[1] = Phase I human trial: plasma pharmacokinetics of EA-230; type: in vivo; details: for tmax: 15-min infusion; for AUC(0-t) / Cmax: plasma, iv
From the text: as §1, §2
Plasma concentration time profiles of EA-230 were analyzed. Pharmacokinetic parameters AUC, clearance, volume of distribution and elimination half-life were obtained for EA-230.
PK samples were collected pre-dose and from 5 minutes to 4 hours after the start of study drug administration.

[2] = test system: mice, 25 minutes renal ischemia/reperfusion; experiment: Mouse renal ischemia reperfusion test (mortality, BUN/serum urea); type: in vivo; set-up: BUN, mean / Urea level: unit not given here
Experimental: SEQ ID NO:2 was tested and compared with PBS (control) in a double blind animal study for the peptide's relative ability to aid recovery in a mouse renal ischemia reperfusion test. In this test, the mice were anesthetized, and one kidney from each mouse was removed. The other kidney was tied off for 25 minutes, and the serum urea levels were allowed to increase. Both before and after tying off, the peptide was administered to thirty (30) different mice (5 mg oligopeptide/kg body mass intravenously), after which, the mortality of the mice was determined for each oligopeptide as well as was the BUN concentration at two hours, 24 hours and 72 hours.
Under inhalation anesthesia, the left kidney with its artery and vein was isolated and occluded for 25 minutes using a microvascular clamp. During surgery animals were placed on a heating path to maintain body temperature at 37° C. Five minutes before placing the clamp, and 5 minutes before releasing the clamp, 5 mg/kg of peptide, dissolved in 0.1 mL of sterile saline, was administered intravenously. After reperfusion of the left kidney the right kidney was removed. Kidney function was assessed by measuring blood urea nitrogen before clamping, and at 2, 24, and 72 hours after reperfusion.
To determine dose-response relationships SEQ ID NO:2, was tested in a dose-response manner in the mice test as described above. Peptides were tested at 0.3, 1, 3, 10 and 30 mg/kg dosages given as described in Example I. Serum urea levels are presented in Table 3.

[3] = test system: BALB/c mice injected i.p. with LPS (E. coli 026:B6); experiment: LPS-induced septic shock (endotoxin model) in BALB/c mice; type: in vivo, mouse; set-up: key to Sickness score of individual mouse: 0: No abnormalities.; 1: Percolated fur, but no detectable behavior differences compared to normal mice.; 2: Percolated fur, huddle reflex, responds to stimuli (such as tap on cage), just as active during handling as healthy mouse.; 3: Slower response to tap on cage, passive or docile when handled, but still curious when alone in a new setting.; 4: Lack of curiosity, little or no response to stimuli, quite immobile.; 5: Labored breathing, inability or slow to self-right after being rolled onto back (moribund, sacrificed).; Dead; details: for Survival %: group of 6, 48 hrs
Experimental: Mice used in sepsis or septic shock experiments: Female BALB/c mice of 8-12 weeks of age were used for all experiments. The animals were bred in our facility under specific pathogen-free conditions according to the protocols described in the Report of European Laboratory Animal Science Associations (FELASA) Working group on Animal Health (Laboratory Animals 28: 1-24, 1994).
Injection protocols: For the endotoxin model, BALB/c mice were injected i.p. with 150-300 μg LPS (E. coli 026:B6; Difco Lab., Detroit, Mich., USA). Control groups were treated with PBS i.p. only. To test the effect of peptides, they were dissolved in PBS and injected i.p. at predetermined points in time after LPS treatment.
Mice were scored for sickness severity using the following measurement scheme: • 0 No abnormalities. • 1 Percolated fur, but no detectable behavior differences compared to normal mice. • 2 Percolated fur, huddle reflex, responds to stimuli (such as tap on cage), just as active during handling as healthy mouse. • 3 Slower response to tap on cage, passive or docile when handled, but still curious when alone in a new setting. • 4 Lack of curiosity, little or no response to stimuli, quite immobile. • 5 Labored breathing, inability or slow to self-right after being rolled onto back (moribund, sacrificed). • D Dead […]
A comparative trial was set up to compare peptide MTR and SEQ ID NO:2. The comparative trial comprised 6 groups of 6 animals; two groups (1A and 1B) receiving placebo (PBS), one group (2) peptide MTR (source Pepscan, Lelystad, NL), one group (3) receiving peptide MTR (source Ansynth), one group (4) receiving peptide SEQ ID NO:2 (source Pepscan) and one group peptide SEQ ID NO:2 (source Ansynth). Peptide/placebo in these groups was administered 2 hours after LPS. LPS (source) was used at 10-11 mg/kg. Sickness scores were done at 0, 2, 22 26 42 and 48 hours after LPS injection.

[4] = 1 mg/kg, 1 mg/kg i.v. 2-min infusion, N = 6, arithmetic mean ± SD
[5] = 3 mg/kg, 3 mg/kg i.v. 2-min infusion, N = 6, arithmetic mean ± SD
[6] = 10 mg/kg, 10 mg/kg i.v. 15-min infusion, N = 6, arithmetic mean ± SD
[7] = 10 mg/kg, Part 2, LPS + 10 mg/kg i.v. 15-min infusion, arithmetic mean ± SD
[8] = 30 mg/kg, 30 mg/kg i.v. 15-min infusion, N = 6, arithmetic mean ± SD

## CC(C)[C@H](NC(=O)CNC(=O)[C@H](CCC(N)=O)NC(=O)[C@H](C)N)C(=O)O [EA-230, H-Ala-Gln-Gly-Val-OH.xAcOH] (H-AQGV-OH)
Healthy male subjects
  AE occurrence, placebo vs active subjects: No difference in AE occurrence
Healthy male subjects; 1 mg/kg to 30 mg/kg i.v.
  safety and tolerability of a single dose: safe and well tolerated
Healthy male subjects; escalating dose part 1-30 mg/kg
  number or intensity of AEs with the dose: No increase in the number or intensity of AEs
Healthy male subjects; whole study
  QTc: No abnormal QTc
  serious adverse events (SAE): No SAE occurred
[1]; 10 mg/kg EA-230 alone
  tmax: 5 minutes before the end of infusion
[1]; 1-mg/kg dose
  time by which average plasma concentrations were below LOQ: ≤ 15 min
[1]; 30-mg/kg dose, after dosing
  time by which average plasma concentrations were below LOQ: ≤ 120 min
[1]; most subjects, 10 mg/kg EA-230 with LPS challenge
  tmax: 10 minutes before the end of infusion
[1]; [4]
  AUC(0-t): 2.5 ng·h/mL
  Cmax: 32.5 ng/mL
[1]; [5]
  AUC(0-t): 11.8 ng·h/mL
  Cmax: 132 ± 76.4 ng/mL
[1]; [6]
  AUC(0-t): 217 ng·h/mL
  Cmax: 1600 ± 1130 ng/mL
[1]; [7]
  AUC(0-t): 303 ng·h/mL
  Cmax: 1710 ± 1330 ng/mL
[1]; [8]
  AUC(0-t): 595 ng·h/mL
  Cmax: 3220 ± 1080 ng/mL
[1]; single i.v. dose 1-30 mg/kg
  elimination from plasma: rapidly eliminated

## AQG
[2]; 0.3 mg/kg, 24 h
  Urea level: 38.4
[2]; 0.3 mg/kg, 72 h
  Urea level: 30.4
[2]; 1.0 mg/kg, 24 h
  Urea level: 48.4
[2]; 1.0 mg/kg, 72 h
  Urea level: 38.4
[2]; 3.0 mg/kg, 24 h
  Urea level: 39.3
[2]; 3.0 mg/kg, 72 h
  Urea level: 40.3
[2]; 10.0 mg/kg, 24 h
  Urea level: 46.8
[2]; 10.0 mg/kg, 72 h
  Urea level: 25.8
[2]; 30.0 mg/kg, 24 h
  Urea level: 52.8
[2]; 30.0 mg/kg, 72 h
  Urea level: 58.9

## MTR
[3]; source Ansynth (#Ansynth 12/46) 2 hours after LPS 10-11 mg/kg, 0 hrs (before peptide)
  Sickness score of individual mouse: 0
[3]; source Ansynth (#Ansynth 12/46) 2 hours after LPS 10-11 mg/kg, 2 hrs (at peptide administration)
  Sickness score of individual mouse: 2
[3]; source Ansynth (#Ansynth 12/46) 2 hours after LPS 10-11 mg/kg, 22 hrs
  Sickness score of individual mouse: 2 (4×) and 4 and 3
[3]; source Ansynth (#Ansynth 12/46) 2 hours after LPS 10-11 mg/kg, 26 hrs
  Sickness score of individual mouse: 1 and 2 (2×) and 5 and 4 and 3
[3]; source Ansynth (#Ansynth 12/46) 2 hours after LPS 10-11 mg/kg, 42 hrs
  Sickness score of individual mouse: 1 and 2 (2×) and dead and 4 and 5
[3]; source Ansynth (#Ansynth 12/46) 2 hours after LPS 10-11 mg/kg, 48 hrs
  Sickness score of individual mouse: 1 (2×) and dead (2×) and 2
[3]; source Ansynth (#Ansynth 12/46) 2 hours after LPS 10-11 mg/kg
  Survival %: 50%
[3]; source Pepscan (#970/#971) 5 mg/kg 2 hours after LPS 10-11 mg/kg, 0 hrs (before peptide)
  Sickness score of individual mouse: 0
[3]; source Pepscan (#970/#971) 5 mg/kg 2 hours after LPS 10-11 mg/kg, 2 hrs (at peptide administration)
  Sickness score of individual mouse: 2
[3]; source Pepscan (#970/#971) 5 mg/kg 2 hours after LPS 10-11 mg/kg, 22 hrs
  Sickness score of individual mouse: dead and 3 and 2 (3×) and 4
[3]; source Pepscan (#970/#971) 5 mg/kg 2 hours after LPS 10-11 mg/kg, 26 hrs
  Sickness score of individual mouse: 3 and 2 (3×) and 5
[3]; source Pepscan (#970/#971) 5 mg/kg 2 hours after LPS 10-11 mg/kg, 42 hrs
  Sickness score of individual mouse: 5 and 2 (2×) and 4 and dead
[3]; source Pepscan (#970/#971) 5 mg/kg 2 hours after LPS 10-11 mg/kg, 48 hrs
  Sickness score of individual mouse: dead (2×) and 2 (2×)
[3]; source Pepscan (#970/#971) 5 mg/kg 2 hours after LPS 10-11 mg/kg
  Survival %: 33%
